Measurements reported in patent US10214514B2, “Hedgehog antagonists having zinc binding moieties” (Curis, Inc., priority 2011, dated 2019).
“And” between values parts separate entries of the source, which are not always exact repeats. Equal entries are not always repeated.

Tests used:
[1] = test system: Hedgehog pathway signaling (Gli-Luc response, OCT-SHH activated 10 Tl/2 (s12) cells); experiment: Hedgehog signalling inhibition, Gli-Luc reporter assay (Hh Reporter assay); type: cell-based
Procedure: Example 17: An In Vitro Assay which Determines the Ability of a Test Compound to Inhibit Hedgehog Signalling
Compounds to be tested were dissolved in DMSO to a concentration of 10 mM, and stored at −20° C. To activate the Hedgehog pathway in the assay cells, an octylated (lipid-modified) form of the N-terminal fragment of the Sonic Hedgehog protein (OCT-SHH) was used. This N-terminal SHH fragment is produced bacterially. See, for example, Taylor F R, et al., Biochemistry, 2001, 40: 4359-71.
Compounds were tested in the“Gli-Luc” assay below, using the cell line 10 Tl/2 (s12), wherein the cells contain a Hedgehog-responsive reporter construct utilizing Luciferase as the reporter gene. In this way, Hedgehog pathway signaling activity is measured via the Gli-Luc response.
10 Tl/2 (s12) cells were plated in a 96-well micro-titer plate (MTP) at 20,000 cells/well in full medium [DMEM with 10% FBS]. Then plates were placed in the incubator for incubation overnight (0/N), at 37° C. and 5% CO2. After 24 h, the medium was replaced with Luciferase-assay medium (DMEM with 0.5% FBS). Test compounds were thawed and diluted in assay medium at 3:1000 (about 300-fold) resulting in a starting concentration of about 0.0003 uM to 30 uM. Subsequently, 150 ul of each sample was added to the first wells (in triplicate). The MTP samples were then diluted at 3-fold dilutions to a total of seven wells, ultimately resulting in a regiment of seven dilutions in triplicate, for each compound. Next, the protein ligand OCT-SHH was diluted in Luciferase-assay medium and added to each well at a final concentration of 0.3 μg/ml. Plates were then returned to the incubator for further incubation O/N, at 37° C. and 5% CO2. After about 24 h, plates were removed from the incubator and the medium was aspirated/discarded.
Wells were washed once with assay buffer [PBS+1 mM Mg^2+ and 1 mM Ca^2+]. Then 50 μl of assay buffer was added to each well. The Luciferase assay reagent was prepared as described by the vendor (LucLite kit from Packard), and 50 μl was added to each well. Plates were incubated at room temperature (RT) for about 30 minutes after which the signals were read, again at RT, on a Topcount (Packard). […]

[2] = test system: HDACs (HeLa cell nuclear extracts); experiment: HDAC enzymatic activity inhibition assay (Biomol Color de Lys system); type: biochemical; conditions: class symbols
Procedure: HDAC inhibitory activity was assessed using the Biomol Color de Lys system (AK-500, Biomol, Plymouth Meeting, Pa.). Briefly, HeLa cell nuclear extracts were used as a source of HDACs. Different concentrations of test compounds were serially diluted in dimethylsulfoxide (DMSO) and added to HeLa cell nuclear extracts in the presence of a colorimetric artificial substrate. […] Reactions were carried out at room temperature (25° C.) for 1 hour before addition of developer for termination. […] Data were analyzed using GraphPad Prism (v4.0a) with a sigmoidal dose response curve fitting for IC50 calculation.

[3] = S12, Gli-Luc reporter, class symbols

| Compound | IC50 ([1]; Gli-Luc reporter, numeric values for reference compounds) | IC50 ([1]; S12, Gli-Luc reporter, numeric values for reference compounds) [nM] | IC50 [2] [nM] | IC50 [1, 3] [nM] | melting point [°C] |
| --- | --- | --- | --- | --- | --- |
| CS(=O)(=O)c1ccc(C(=O)Nc2ccc(Cl)c(-c3ccc(/C=C/C(=O)NO)cn3)c2)c(Cl)c1 [Compound 1, (E)-2-chloro-N-(4-chloro-3-(5-(3-(hydroxyamino)-3-oxoprop-1-enyl)pyridin-2-yl)phenyl)-4-(methylsulfonyl)benzamide] | – | – | 100 to 1000 | 100 to 1000 | – |
| O=C(NO)c1cnc(N2CCC(CNS(=O)(=O)c3ccc(C(=O)Nc4ccc(Cl)c(-c5ccccn5)c4)c(Cl)c3)CC2)nc1 [Compound 90, 2-(4-((3-Chloro-4-(4-chloro-3-(pyridin-2-yl)phenylcarbamoyl)phenylsulfonamido)methyl)piperidin-1-yl)-N-hydroxypyrimidine-5-carboxamide] | – | – | 10 to 100 | 1 to 10 | 172 to 173 |
| CS(=O)(=O)c1ccc(C(=O)Nc2ccc(Cl)c(-c3ccc(OCCCCCCC(=O)NO)cn3)c2)c(Cl)c1 [Compound 23, 2-Chloro-N-{4-chloro-3-[5-(6-hydroxycarbamoyl-hexyloxy)-pyridin-2-yl]-phenyl}-4-methanesulfonyl-benzamide] | – | – | 10 to 100 | 100 to 1000 | 140 to 145 |
| Cc1nc(NCC2CCN(c3ncc(C(=O)NO)cn3)CC2)ccc1C(=O)Nc1ccc(Cl)c(-c2nc3ccccc3[nH]2)c1 [Compound 91, 2-(4-((5-(3-(1H-Benzo[d]imidazol-2-yl)-4-chlorophenylcarbamoyl)-6-methylpyridin-2-ylamino)methyl)piperidin-1-yl)-N-hydroxypyrimidine-5-carboxamide] | – | – | 10 to 100 | 10 to 100 | 194 to 196 |
| O=C(CCCCCCNS(=O)(=O)c1ccc(C(=O)Nc2ccc(Cl)c(-c3ccccn3)c2)c(Cl)c1)NO [Compound 59, 2-Chloro-N-(4-chloro-3-(pyridin-2-yl)phenyl)-4-(N-(7-(hydroxyamino)-7-oxoheptyl)sulfamoyl)benzamide] | – | – | 100 to 1000 | 10 to 100 | – |
| CS(=O)(=O)c1ccc(C(=O)Nc2ccc(Cl)c(-c3ncc(C(=O)NO)cn3)c2)c(Cl)c1 [Compound 7, 2-[2-Chloro-5-(2-chloro-4-methanesulfonyl-benzoylamino)-phenyl]-pyrimidine-5-carboxylic acid hydroxyamide] | – | – | 100 to 1000 | > 1000 | – |
| CS(=O)(=O)c1ccc(C(=O)Nc2ccc(Cl)c(-c3ccc(C(=O)NO)cn3)c2)c(Cl)c1 [Compound 5, 6-(2-Chloro-5-(2-chloro-4-(methylsulfonyl)benzamido)phenyl)-N-hydroxynicotinamide] | – | – | 100 to 1000 | 100 to 1000 | – |

Further lines, results first:

| IC50 ([1]; Gli-Luc reporter, numeric values for reference compounds) | IC50 ([1]; S12, Gli-Luc reporter, numeric values for reference compounds) [nM] | IC50 [2] [nM] | IC50 [1, 3] [nM] | melting point [°C] | Compound |
| --- | --- | --- | --- | --- | --- |
| 24 nM and 13.1 nM | 17 | – | – | – | COc1cc(OC)cc(C(=O)Nc2ccc(Cl)c(-c3nc4ccc(N(C)C)cc4[nH]3)c2)c1 [Compound A, reference compound] |
| – | – | 100 to 1000 | 10 to 100 | – | O=C(/C=C/c1cccc(NS(=O)(=O)c2ccc(C(=O)Nc3ccc(Cl)c(-c4ccccn4)c3)c(Cl)c2)c1)NO [Compound 254, (E)-2-Chloro-N-(4-chloro-3-(pyridin-2-yl)phenyl)-4-(N-(3-(3-(hydroxyamino)-3-oxoprop-1-enyl)phenyl)sulfamoyl)benzamide] |
| – | – | 10 to 100 | 10 to 100 | – | COc1cc(CN(C)c2ncc(C(=O)NO)cn2)cc(C(=O)Nc2ccc(Cl)c(-c3nc4cc(N(C)C)ccc4[nH]3)c2)c1 [Compound 259, 2-((3-(4-Chloro-3-(5-(dimethylamino)-1H-benzo[d]imidazol-2-yl)phenylcarbamoyl)-5-methoxybenzyl)(methyl)amino)-N-hydroxypyrimidine-5-carboxamide] |
| – | – | 100 to 1000 | 1 to 10 | 138 to 139 | O=C(NO)c1ccc(OCCNS(=O)(=O)c2ccc(C(=O)Nc3ccc(Cl)c(-c4ccccn4)c3)c(Cl)c2)cc1 [Compound 266, 2-Chloro-N-(4-chloro-3-(pyridin-2-yl)phenyl)-4-(N-(2-(4-(hydroxycarbamoyl)phenoxy)ethyl)sulfamoyl)benzamide] |
| – | – | > 1000 | – | – | O=C(NO)c1cnc(NS(=O)(=O)c2ccc(C(=O)Nc3ccc(Cl)c(-c4ccccn4)c3)c(Cl)c2)nc1 [Compound 265, 2-(3-Chloro-4-(4-chloro-3-(pyridin-2-yl)phenylcarbamoyl)phenylsulfonamido)-N-hydroxypyrimidine-5-carboxamide] |
| – | – | 10 to 100 | 100 to 1000 | – | CN(Cc1ccc(C(=O)Nc2ccc(Cl)c(-c3ccccn3)c2)c(Cl)c1)c1ncc(C(=O)NO)cn1 [Compound 263, 2-((3-Chloro-4-(4-chloro-3-(pyridin-2-yl)phenylcarbamoyl)benzyl) (methyl)amino)-N-hydroxypyrimidine-5-carboxamide] |
| – | – | 10 to 100 | 100 to 1000 | – | CN(C)c1ccc2[nH]c(-c3cc(NC(=O)c4cccc(OCCCCCCC(=O)NO)c4)ccc3Cl)nc2c1 [Compound 111, N-(4-Chloro-3-(5-(dimethylamino)-1H-benzo[d]imidazol-2-yl)phenyl)-3-(7-(hydroxyamino)-7-oxoheptyloxy)benzamide] |
| – | – | 10 to 100 | 10 to 100 | 158 to 159 | COc1cc(CNc2ncc(C(=O)NO)cn2)cc(C(=O)Nc2ccc(Cl)c(-c3nc4cc(N(C)C)ccc4[nH]3)c2)c1 [Compound 258, 2-(3-(4-Chloro-3-(5-(dimethylamino)-1H-benzo[d]imidazol-2-yl)phenylcarbamoyl)-5-methoxybenzylamino)-N-hydroxypyrimidine-5-carboxamide] |
